# Source: patent publication US11851440B2, “Modulators of eukaryotic initiation factor 2B, compositions and methods” (Denali Therapeutics Inc., priority 2017, dated 2023)
# System: ISR pathway (ATF4 translation)
# Test: ATF4 Nano Luciferase reporter integrated stress response (ISR) assay in H4 ATF4-NLuc cells
# Conditions: Homo sapiens, H4 ATF4-NLuc (clone 17) cells; compound 30 minutes, then 50 um sodium arsenite for 6 hours; luminescence readout
row,Structure (SMILES),IC50 [nM]
1,"O=C(NC12CC(c3nnc([C@H]4C[C@@H](OC(F)(F)F)C4)o3)(C1)C2)C1CCc2cc(Cl)ccc2O1 (single isomer, unassigned) [Example 157, 6-chloro-N-(3-(5-(3-cis-(trifluoromethoxy)cyclobutyl)-1,3,4-oxadiazol-2-yl)bicyclo[1.1.1]pentan-1-yl)chroman-2-carboxamide]",9.2
2,"O=C(COc1ccc(Cl)cc1)NC12CC(c3nnc([C@H]4C[C@@H](OC(F)(F)F)C4)o3)(C1)C2 [Example 3, 2-(4-chlorophenoxy)-N-[3-[5-[cis-3-(trifluoromethoxy)cyclobutyl]-1,3,4-oxadiazol-2-yl]-1-bicyclo[1.1.1]pentanyl]acetamide]",9.2
3,"O=C(COc1ccc(Cl)c(F)c1)NC12CC(c3nnc([C@H]4C[C@@H](OC(F)(F)F)C4)o3)(C1)C2 [Example 6, 2-(4-chloro-3-fluoro-phenoxy)-N-[1-[5-[cis-3-(trifluoromethoxy)cyclobutyl]-1,3,4-oxadiazol-2-yl]-3-bicyclo[1.1.1]pentanyl]acetamide]",2.5

# Same assay, conditions: Homo sapiens, read-out: Activity (IC50), H4 ATF4-NLuc (clone 17) cells; compound 30 minutes, then 50 um sodium arsenite for 6 hours; luminescence readout
row,Structure (SMILES),IC50 [nM]
1,"O=C(COc1ccc(Cl)c(F)c1)NC12CC(c3nnc(C4C[C@H]4COC(F)(F)F)o3)(C1)C2 (mixture of isomers) [Example 80, 2-(4-chloro-3-fluoro-phenoxy)-N-[3-[5-[2-trans-(trifluoromethoxymethyl)cyclopropyl]-1,3,4-oxadiazol-2-yl]-1-bicyclo[1.1.1]pentanyl]acetamide]",< 1000
2,"C[C@H]1C[C@@H]1c1nnc(C23CC(NC(=O)COc4ccc(Cl)c(F)c4)(C2)C3)o1 (relative stereo) [Example 9, 2-(4-chloro-3-fluoro-phenoxy)-N-[1-[5-[(trans)-2-methylcyclopropyl]-1,3,4-oxadiazol-2-yl]-3-bicyclo[1.1.1]pentanyl]acetamide]",< 1000
3,"N#C[C@H]1C[C@@H](n2cc(C34CC(NC(=O)COc5ccc(Cl)c(F)c5)(C3)C4)nn2)C1 (relative stereo) [Example 35, 2-(4-chloro-3-fluorophenoxy)-N-(3-(1-((cis)-3-cyanocyclobutyl)-1H-1,2,3-triazol-4-yl)bicyclo[1.1.1]pentan-1-yl)acetamide]",< 1000
4,"N#C[C@H]1C[C@@H](n2ncc(C34CC(NC(=O)COc5ccc(Cl)c(F)c5)(C3)C4)n2)C1 (relative stereo) [Example 36, 2-(4-chloro-3-fluorophenoxy)-N-(3-(2-((cis)-3-cyanocyclobutyl)-2H-1,2,3-triazol-4-yl)bicyclo[1.1.1]pentan-1-yl)acetamide]",< 1000
5,"O=C(COc1ccc(Cl)c(F)c1)NC12CC(c3cnn(C4CCC4)n3)(C1)C2 (single isomer, unassigned) [Example 19, 2-(4-Chloro-3-fluoro-phenoxy)-N-[1-(2-cyclobutyltriazol-4-yl)-3-bicyclo[1.1.1]pentanyl]acetamide]",< 1000
6,"O=C(COc1ccc(Cl)c(F)c1)NC12CC(c3cn(C4CCC4)nn3)(C1)C2 (single isomer, unassigned) [Example 20, 2-(4-chloro-3-fluoro-phenoxy)-N-[1-(1-cyclobutyltriazol-4-yl)-3-bicyclo[1.1.1]pentanyl]acetamide]",< 1000
7,"O=C(COc1ccc(Cl)c(F)c1)NC12CC(c3nnc(C4C[C@H]4COC(F)(F)F)o3)(C1)C2 (single isomer, unassigned) [Example 82, 2-(4-chloro-3-fluoro-phenoxy)-N-[3-[5-[2-trans-(trifluoromethoxymethyl)cyclopropyl]-1,3,4-oxadiazol-2-yl]-1-bicyclo[1.1.1]pentanyl]acetamide]",< 1000
8,"O=C(COc1ccc(Cl)c(F)c1)NC12CC(c3nnc([C@H]4C[C@@H]4C(F)F)o3)(C1)C2 (single isomer, unassigned) [Example 84, 2-(4-chloro-3-fluoro-phenoxy)-N-[3-[5-[2-trans-(difluoromethyl)cyclopropyl]-1,3,4-oxadiazol-2-yl]-1-bicyclo[1.1.1]pentanyl]acetamide]",< 1000
9,"O=C(COc1ccc(Cl)c(F)c1)NC12CC(c3nnc([C@H]4C[C@H]4C(F)F)o3)(C1)C2 (single isomer, unassigned) [Example 85, 2-(4-chloro-3-fluoro-phenoxy)-N-[3-[5-[2-cis-(difluoromethyl)cyclopropyl]-1,3,4-oxadiazol-2-yl]-1-bicyclo[1.1.1]pentanyl]acetamide]",1000 to 10000
10,"O=C(NC12CC(c3nnc([C@H]4C[C@@H](OC(F)(F)F)C4)o3)(C1)C2)c1ccn([C@H]2C[C@@H](OC(F)(F)F)C2)n1 (single isomer, unassigned) [Example 108, 1-[cis-3-(trifluoromethoxy)cyclobutyl]-N-[3-[5-[cis-3-(trifluoromethoxy)cyclobutyl]-1,3,4-oxadiazol-2-yl]-1-bicyclo[1.1.1]pentanyl]pyrazole-3-carboxamide]",< 1000
11,"C[C@H]1C[C@@H]1c1nnc(C23CC(NC(=O)COc4ccc(Cl)c(F)c4)(C2)C3)o1 (single isomer, unassigned) [Example 112, 2-(4-chloro-3-fluoro-phenoxy)-N-[1-[5-[2-methylcyclopropyl]-1,3,4-oxadiazol-2-yl]-3-bicyclo[1.1.1]pentanyl]acetamide]",< 1000
12,"O=C(NC12CC(c3nnc([C@H]4C[C@@H](OC(F)(F)F)C4)o3)(C1)C2)C1CCc2cc(Cl)ccc2O1 (single isomer, unassigned) [Example 157, 6-chloro-N-(3-(5-(3-cis-(trifluoromethoxy)cyclobutyl)-1,3,4-oxadiazol-2-yl)bicyclo[1.1.1]pentan-1-yl)chroman-2-carboxamide]",< 1000
13,"O=C(NC12CC(c3nnc([C@H]4C[C@@H](OC(F)(F)F)C4)o3)(C1)C2)C1CCc2cc(F)ccc2O1 (single isomer, unassigned) [Example 159]",< 1000
14,"O=C(COc1ccc(Cl)c(F)c1)NC12CC(N3C[C@H](C4CC(OC(F)(F)F)C4)OC3=O)(C1)C2 (single isomer, unassigned) [Example 206]",< 1000
15,"O=C(COc1ccc(Cl)c(F)c1)NC12CC(N3C[C@@H](C4CC(OC(F)(F)F)C4)OC3=O)(C1)C2 (single isomer, unassigned) [Example 208]",< 1000
16,"N#CC1CC([C@H]2CN(C34CC(NC(=O)COc5ccc(Cl)c(F)c5)(C3)C4)C(=O)O2)C1 (single isomer, unassigned) [Example 218]",< 1000
17,"O=C(COc1ccc(Cl)cc1)NC12CC(c3nnc(C4CCOC4)o3)(C1)C2 (stereo not shown) [Example 1, 2-(4-Chlorophenoxy)-N-[3-(5-tetrahydrofuran-3-yl-1,3,4-oxadiazol-2-yl)-1-bicyclo[1.1.1]pentanyl]acetamide]",1000 to 10000
18,"O=C(COc1ccc(Cl)cc1)NC12CC(c3nnc(C4CCCO4)o3)(C1)C2 (stereo not shown) [Example 2, 2-(4-Chlorophenoxy)-N-[3-(5-tetrahydrofuran-2-yl-1,3,4-oxadiazol-2-yl)-1-bicyclo[1.1.1]pentanyl]acetamide]",1000 to 10000
19,"O=C(COc1ccc(Cl)cc1)NC12CC(c3nnc([C@H]4C[C@@H](OC(F)(F)F)C4)o3)(C1)C2 [Example 3, 2-(4-chlorophenoxy)-N-[3-[5-[cis-3-(trifluoromethoxy)cyclobutyl]-1,3,4-oxadiazol-2-yl]-1-bicyclo[1.1.1]pentanyl]acetamide]",< 1000
20,"O=C(COc1ccc(Cl)cc1)NC12CC(c3nnc(CC(F)(F)F)o3)(C1)C2 [Example 4, 2-(4-chlorophenoxy)-N-[3-[5-(2,2,2-trifluoroethyl)-1,3,4-oxadiazol-2-yl]-1-bicyclo[1.1.1]pentanyl]acetamide]",1000 to 10000
21,"O=C(COc1ccc(Cl)cc1)NC12CC(c3nnc(COC4CCC4)o3)(C1)C2 [Example 5, 2-(4-Chlorophenoxy)-N-[1-[5-(cyclobutoxymethyl)-1,3,4-oxadiazol-2-yl]-3-bicyclo[1.1.1]pentanyl]acetamide]",< 1000
22,"O=C(COc1ccc(Cl)c(F)c1)NC12CC(c3nnc([C@H]4C[C@@H](OC(F)(F)F)C4)o3)(C1)C2 [Example 6, 2-(4-chloro-3-fluoro-phenoxy)-N-[1-[5-[cis-3-(trifluoromethoxy)cyclobutyl]-1,3,4-oxadiazol-2-yl]-3-bicyclo[1.1.1]pentanyl]acetamide]",< 1000
23,"CC(CC(F)F)c1nnc(C23CC(NC(=O)COc4ccc(Cl)c(F)c4)(C2)C3)o1 (stereo not shown) [Example 7, 2-(4-chloro-3-fluoro-phenoxy)-N-[1-[5-(3,3-difluoro-1-methyl-propyl)-1,3,4-oxadiazol-2-yl]-3-bicyclo[1.1.1]pentanyl]acetamide]",< 1000
24,"CC(c1nnc(C23CC(NC(=O)COc4ccc(Cl)c(F)c4)(C2)C3)o1)C1CC1 (stereo not shown) [Example 8, 2-(4-chloro-3-fluoro-phenoxy)-N-[1-[5-(1-cyclopropylethyl)-1,3,4-oxadiazol-2-yl]-3-bicyclo[1.1.1]pentanyl]acetamide]",< 1000
25,"O=C(COc1ccc(Cl)c(F)c1)NC12CC(c3nnc(C4(F)CC4)o3)(C1)C2 [Example 10, 2-(4-chloro-3-fluoro-phenoxy)-N-[1-[5-(1-fluorocyclopropyl)-1,3,4-oxadiazol-2-yl]-3-bicyclo[1.1.1]pentanyl]acetamide]",< 1000

# Same assay, conditions: read-out: Activity (IC50); H4 ATF4-NLuc (clone 17) cells; compound 30 minutes, then 50 um sodium arsenite for 6 hours; luminescence readout
row,Structure (SMILES),IC50 [nM]
1,"O=C(COC1CC(OC(F)(F)F)C1)NC12CC(c3nnc(C4C[C@H]4COC(F)(F)F)o3)(C1)C2 (single isomer, unassigned) [Example 90, 2-[cis-3-(trifluoromethoxy)cyclobutoxy]-N-[3-[5-[cis-2-(trifluoromethoxymethyl)cyclopropyl]-1,3,4-oxadiazol-2-yl]-1-bicyclo[1.1.1]pentanyl]acetamide]",> 10000
2,"O=C(COC1CC(OC(F)(F)F)C1)NC12CC(c3nnc(C4C[C@H]4COC(F)(F)F)o3)(C1)C2 (single isomer, unassigned) [Example 91, 2-[3-cis-(trifluoromethoxy)cyclobutoxy]-N-[3-[5-[2-trans-(trifluoromethoxymethyl)cyclopropyl]-1,3,4-oxadiazol-2-yl]-1-bicyclo[1.1.1]pentanyl]acetamide]",< 1000
3,"C[C@H]1C[C@@H]1c1nnc(C23CC(NC(=O)COc4ccc(Cl)c(F)c4)(C2)C3)o1 (single isomer, unassigned) [Example 113, 2-(4-chloro-3-fluoro-phenoxy)-N-[1-[5-[2-methylcyclopropyl]-1,3,4-oxadiazol-2-yl]-3-bicyclo[1.1.1]pentanyl]acetamide]",< 1000
4,"O=C(NC12CC(c3nnc([C@H]4C[C@@H](OC(F)(F)F)C4)o3)(C1)C2)C1CCc2cc(Cl)ccc2O1 (single isomer, unassigned) [Example 158, 6-chloro-N-(3-(5-(3-cis-(trifluoromethoxy)cyclobutyl)-1,3,4-oxadiazol-2-yl)bicyclo[1.1.1]pentan-1-yl)chroman-2-carboxamide]",< 1000
5,"O=C(NC12CC(c3nnc([C@H]4C[C@@H](OC(F)(F)F)C4)o3)(C1)C2)C1CCc2cc(F)ccc2O1 (single isomer, unassigned) [Example 160]",< 1000
6,"O=C(COc1ccc(Cl)c(F)c1)NC12CC(N3C[C@@H](C4CC(OC(F)(F)F)C4)OC3=O)(C1)C2 (single isomer, unassigned) [Example 209]",< 1000
